Measured values published in ChEMBL document CHEMBL3351528, “Targeting dopamine D3 and serotonin 5-HT1A and 5-HT2A receptors for developing effective antipsychotics: synthesis, biological characterization, and behavioral studies” (J Med Chem, 2014).
Active and inactive are the calls of the source. No cut-off for these calls is given here.

Experiments:
Mus musculus [1] = assay: Anxiolytic activity in mouse at 10 mg/kg, ip dosed 30 mins before test by marble burying method; assay type: functional, organism-based; design: dose 10 mg/kg
Mus musculus [2] = assay: Effect on spontaneous locomotor activity in mouse at 10 mg/kg, ip; assay type: ADME, organism-based; design: dose 10 mg/kg, route intraperitoneal; conditions: in vivo
D(2) dopamine receptor = D(2) dopamine receptor (Homo sapiens, UniProt P14416)
D(2) dopamine receptor, sequence (P14416 whole entry): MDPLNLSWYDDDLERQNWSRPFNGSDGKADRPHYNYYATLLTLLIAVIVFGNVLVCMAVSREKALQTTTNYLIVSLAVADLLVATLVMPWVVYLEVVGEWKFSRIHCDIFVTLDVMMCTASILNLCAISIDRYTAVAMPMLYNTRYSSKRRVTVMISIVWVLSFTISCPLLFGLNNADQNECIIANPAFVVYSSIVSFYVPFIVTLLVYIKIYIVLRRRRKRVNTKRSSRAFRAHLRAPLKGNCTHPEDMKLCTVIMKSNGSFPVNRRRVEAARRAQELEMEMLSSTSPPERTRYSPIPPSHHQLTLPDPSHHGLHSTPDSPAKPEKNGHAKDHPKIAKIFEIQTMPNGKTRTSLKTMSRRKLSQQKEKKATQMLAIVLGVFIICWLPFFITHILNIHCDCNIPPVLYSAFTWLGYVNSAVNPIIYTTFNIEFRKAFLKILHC
Description: Binding affinity to dopamine D2 receptor (unknown origin)

[3] = target: 5-hydroxytryptamine receptor 2A (Homo sapiens, UniProt P28223)
5-hydroxytryptamine receptor 2A, sequence (P28223 whole entry): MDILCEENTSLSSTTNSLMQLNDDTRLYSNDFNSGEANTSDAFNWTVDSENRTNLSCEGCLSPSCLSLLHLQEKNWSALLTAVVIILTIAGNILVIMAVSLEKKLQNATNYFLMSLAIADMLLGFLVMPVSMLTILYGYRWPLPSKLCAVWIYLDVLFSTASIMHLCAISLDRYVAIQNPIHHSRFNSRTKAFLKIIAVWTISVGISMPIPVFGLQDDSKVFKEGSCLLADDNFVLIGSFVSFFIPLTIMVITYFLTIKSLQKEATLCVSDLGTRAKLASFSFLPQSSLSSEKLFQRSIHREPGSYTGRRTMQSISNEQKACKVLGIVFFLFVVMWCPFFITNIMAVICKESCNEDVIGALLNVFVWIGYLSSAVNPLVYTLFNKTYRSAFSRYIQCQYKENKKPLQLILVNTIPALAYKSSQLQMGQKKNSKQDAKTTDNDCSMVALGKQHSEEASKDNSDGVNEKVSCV
Description: Binding affinity to 5HT2A receptor (unknown origin)

Mus musculus [4] = assay: Antipsychotic-like activity in sc dosed NMRI mouse assessed as reduction in MK801-induced locomotor activity dosed 15 to 30 mins before administration of MK801 measured for 60 mins; assay type: functional; conditions: read-out: MED
Mus musculus [5] = assay: Toxicity in NMRI mouse assessed as induction of catalepsy at 30 mg/kg, sc dosed 30 mins before test; assay type: organism-based; design: dose 30 mg/kg, route subcutaneous; conditions: in vivo, 0.5 h
D(3) dopamine receptor = D(3) dopamine receptor (Homo sapiens, UniProt P35462)
D(3) dopamine receptor, sequence (P35462 whole entry): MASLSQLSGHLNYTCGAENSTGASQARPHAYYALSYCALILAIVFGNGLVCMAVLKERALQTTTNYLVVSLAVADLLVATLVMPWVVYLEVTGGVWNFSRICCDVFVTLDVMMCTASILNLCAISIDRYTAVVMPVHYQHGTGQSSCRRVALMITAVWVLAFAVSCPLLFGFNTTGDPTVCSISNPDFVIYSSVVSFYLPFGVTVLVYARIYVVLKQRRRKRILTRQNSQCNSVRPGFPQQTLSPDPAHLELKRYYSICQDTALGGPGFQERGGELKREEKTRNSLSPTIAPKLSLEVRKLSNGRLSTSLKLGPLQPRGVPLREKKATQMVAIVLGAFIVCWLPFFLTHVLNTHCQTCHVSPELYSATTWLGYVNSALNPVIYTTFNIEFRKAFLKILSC
Description: Binding affinity to dopamine D3 receptor (unknown origin)

[6] = target: T1, 5-hydroxytryptamine receptor 1A (Homo sapiens, UniProt P08908)
T1 sequence (P08908 whole entry): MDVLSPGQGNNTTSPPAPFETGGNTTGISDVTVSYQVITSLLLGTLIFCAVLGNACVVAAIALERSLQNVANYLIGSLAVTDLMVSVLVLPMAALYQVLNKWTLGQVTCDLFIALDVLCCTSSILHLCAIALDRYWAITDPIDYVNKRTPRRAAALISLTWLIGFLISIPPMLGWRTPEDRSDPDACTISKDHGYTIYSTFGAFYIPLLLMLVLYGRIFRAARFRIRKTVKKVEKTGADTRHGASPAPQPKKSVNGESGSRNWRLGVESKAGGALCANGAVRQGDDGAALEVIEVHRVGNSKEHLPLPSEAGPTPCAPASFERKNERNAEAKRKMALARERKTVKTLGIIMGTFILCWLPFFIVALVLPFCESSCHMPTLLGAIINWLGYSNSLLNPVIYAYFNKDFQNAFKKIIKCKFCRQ
Description: Binding affinity to 5HT1A receptor (unknown origin)

[7] = target: T2, 5-hydroxytryptamine receptor 2C (Homo sapiens, UniProt P28335)
T2 sequence (P28335 whole entry): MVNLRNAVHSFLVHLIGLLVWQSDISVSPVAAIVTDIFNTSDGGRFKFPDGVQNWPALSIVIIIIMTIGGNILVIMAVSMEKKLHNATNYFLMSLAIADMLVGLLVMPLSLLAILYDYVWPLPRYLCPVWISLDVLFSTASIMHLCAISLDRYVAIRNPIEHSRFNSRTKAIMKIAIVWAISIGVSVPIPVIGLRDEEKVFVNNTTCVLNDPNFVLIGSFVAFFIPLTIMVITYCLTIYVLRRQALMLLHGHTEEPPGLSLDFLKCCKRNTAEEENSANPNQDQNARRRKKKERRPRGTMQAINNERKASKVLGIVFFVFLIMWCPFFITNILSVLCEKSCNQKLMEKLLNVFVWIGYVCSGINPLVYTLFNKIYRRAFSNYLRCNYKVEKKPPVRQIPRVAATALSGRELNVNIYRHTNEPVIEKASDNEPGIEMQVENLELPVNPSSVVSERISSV
Description: Binding affinity to 5HT2C receptor (unknown origin)

Mus musculus [8] = species on record: Mus musculus; conditions: in vivo, sc, 0.5 h
Description: Effect on spontaneous exploratory locomotor activity in sc dosed NMRI mouse measured for 30 mins with activity counts each 5 mins

Mus musculus [9] = species on record: Mus musculus; assay: animal or person; conditions: NMRI, sc, read-out: MED
Description: Antipsychotic-like activity in sc dosed NMRI mouse assessed as reduction in methamphetamine-induced locomotor activity dosed 15 to 30 mins before administration of methamphetamine measured for 60 mins

Heart [10] = assay: Cardiotoxicity in Langendorff-perfused Sprague-Dawley rat heart assessed as heart rate at 0.01 uM (reference value: 296.25 +/- 13.61 bpm); assay type: toxicity, tissue-based
Heart [11] = assay: Cardiotoxicity in Langendorff-perfused Sprague-Dawley rat heart assessed as heart rate at 0.1 uM (reference value: 296.25 +/- 13.61 bpm); assay type: toxicity, tissue-based
Heart [12] = assay: Cardiotoxicity in Langendorff-perfused Sprague-Dawley rat heart assessed as heart rate at 1 uM (reference value: 296.25 +/- 13.61 bpm); assay type: toxicity, tissue-based
Heart [13] = assay: Cardiotoxicity in Langendorff-perfused Sprague-Dawley rat heart assessed as heart rate at 10 uM (reference value: 296.25 +/- 13.61 bpm); assay type: toxicity, tissue-based
Heart [14] = assay: Cardiotoxicity in Langendorff-perfused Sprague-Dawley rat heart assessed as cycle length time at 0.01 uM (reference value: 203.61 +/- 9.17 ms); assay type: toxicity, tissue-based
Heart [15] = assay: Cardiotoxicity in Langendorff-perfused Sprague-Dawley rat heart assessed as cycle length time at 0.1 uM (reference value: 203.61 +/- 9.17 ms); assay type: toxicity, tissue-based
Heart [16] = assay: Cardiotoxicity in Langendorff-perfused Sprague-Dawley rat heart assessed as cycle length time at 1 uM (reference value: 203.61 +/- 9.17 ms); assay type: toxicity, tissue-based
Heart [17] = assay: Cardiotoxicity in Langendorff-perfused Sprague-Dawley rat heart assessed as cycle length time at 10 uM (reference value: 203.61 +/- 9.17 ms); assay type: toxicity, tissue-based
Heart [18] = assay: Cardiotoxicity in Langendorff-perfused Sprague-Dawley rat heart assessed as atrioventricular conduction time at 0.01 uM (reference value: 41.98 +/- 2.55 ms); assay type: toxicity, tissue-based
Heart [19] = assay: Cardiotoxicity in Langendorff-perfused Sprague-Dawley rat heart assessed as atrioventricular conduction time at 0.1 uM (reference value: 41.98 +/- 2.55 ms); assay type: toxicity, tissue-based
Heart [20] = assay: Cardiotoxicity in Langendorff-perfused Sprague-Dawley rat heart assessed as atrioventricular conduction time at 1 uM (reference value: 41.98 +/- 2.55 ms); assay type: toxicity, tissue-based
Heart [21] = assay: Cardiotoxicity in Langendorff-perfused Sprague-Dawley rat heart assessed as atrioventricular conduction time at 10 uM (reference value: 41.98 +/- 2.55 ms); assay type: toxicity, tissue-based
Heart [22] = assay: Cardiotoxicity in Langendorff-perfused Sprague-Dawley rat heart assessed as intraventricular conduction time at 0.01 uM (reference value: 12.33 +/- 0.29 ms); assay type: toxicity, tissue-based, Cardiac ventricle
Heart [23] = assay: Cardiotoxicity in Langendorff-perfused Sprague-Dawley rat heart assessed as intraventricular conduction time at 0.1 uM (reference value: 12.33 +/- 0.29 ms); assay type: toxicity, tissue-based, Cardiac ventricle
Heart [24] = assay: Cardiotoxicity in Langendorff-perfused Sprague-Dawley rat heart assessed as intraventricular conduction time at 1 uM (reference value: 12.33 +/- 0.29 ms); assay type: toxicity, tissue-based, Cardiac ventricle
Heart [25] = assay: Cardiotoxicity in Langendorff-perfused Sprague-Dawley rat heart assessed as intraventricular conduction time at 10 uM (reference value: 12.33 +/- 0.29 ms); assay type: toxicity, tissue-based, Cardiac ventricle
Heart [26] = assay: Cardiotoxicity in Langendorff-perfused Sprague-Dawley rat heart assessed as time duration of ventricular depolarization and repolarization at 0.01 uM (reference value: 71.61 +/- 4.21 ms); assay type: toxicity, tissue-based
Heart [27] = assay: Cardiotoxicity in Langendorff-perfused Sprague-Dawley rat heart assessed as time duration of ventricular depolarization and repolarization at 0.1 uM (reference value: 71.61 +/- 4.21 ms); assay type: toxicity, tissue-based
Heart [28] = assay: Cardiotoxicity in Langendorff-perfused Sprague-Dawley rat heart assessed as time duration of ventricular depolarization and repolarization at 1 uM (reference value: 71.61 +/- 4.21 ms); assay type: toxicity, tissue-based
Heart [29] = assay: Cardiotoxicity in Langendorff-perfused Sprague-Dawley rat heart assessed as time duration of ventricular depolarization and repolarization at 10 uM (reference value: 71.61 +/- 4.21 ms); assay type: toxicity, tissue-based
Heart [30] = assay: Cardiotoxicity in Langendorff-perfused Sprague-Dawley rat heart assessed as corrected time duration of ventricular depolarization and repolarization at 0.01 uM (reference value: 159.41 +/- 11.21 ms); assay type: toxicity, tissue-based
Heart [31] = assay: Cardiotoxicity in Langendorff-perfused Sprague-Dawley rat heart assessed as corrected time duration of ventricular depolarization and repolarization at 0.1 uM (reference value: 159.41 +/- 11.21 ms); assay type: toxicity, tissue-based
Heart [32] = assay: Cardiotoxicity in Langendorff-perfused Sprague-Dawley rat heart assessed as corrected time duration of ventricular depolarization and repolarization at 1 uM (reference value: 159.41 +/- 11.21 ms); assay type: toxicity, tissue-based
Heart [33] = assay: Cardiotoxicity in Langendorff-perfused Sprague-Dawley rat heart assessed as corrected time duration of ventricular depolarization and repolarization at 10 uM (reference value: 159.41 +/- 11.21 ms); assay type: toxicity, tissue-based

## CNC1=Nc2ccc(Cl)cc2C(c2ccccc2)=[N+]([O-])C1.Cl [CHLORDIAZEPOXIDE HYDROCHLORIDE]
Mus musculus [1]
  Activity: Active
Mus musculus [2]
  Activity: Non-toxic

## Cc1cccc(N2CCN(CCCCNC(=O)c3cc4ccccc4cn3)CC2)c1
D(2) dopamine receptor
  Ki: 286 nM
[3]
  Ki: 15 nM
Mus musculus [4]
  minimal effective dose: 3 mg/kg
Mus musculus [5]
  Activity: Non-toxic
D(3) dopamine receptor
  Ki: 5 nM
[6]
  Ki: 8 nM
[7]
  Ki: 169 nM
Mus musculus [8]
  MED: <= 3 mg kg-1
Mus musculus [9]
  minimal effective dose: ≤ 3 mg/kg

## Cl.O=C(NCCCCN1CCN(c2ccccc2)CC1)c1ccc2ncccc2c1
Heart [10]
  Activity: 302.2 bpm
Heart [11]
  Activity: 308.58 bpm
Heart [12]
  Activity: 297.7 bpm
Heart [13]
  Activity: 280.67 bpm
Heart [14]
  Time: 199.43 ms
Heart [15]
  Time: 194.96 ms
Heart [16]
  Time: 204.53 ms
Heart [17]
  Time: 218.07 ms
Heart [18]
  Time: 41.95 ms
Heart [19]
  Time: 42.32 ms
Heart [20]
  Time: 41.51 ms
Heart [21]
  Time: 44.51 ms
Heart [22]
  Time: 13.17 ms
Heart [23]
  Time: 12.7 ms
Heart [24]
  Time: 13.38 ms
Heart [25]
  Time: 14.24 ms
Heart [26]
  Time: 70.61 ms
Heart [27]
  Time: 71.4 ms
Heart [28]
  Time: 71.03 ms
Heart [29]
  Time: 73.96 ms
Heart [30]
  Time: 158.61 ms
Heart [31]
  Time: 162.06 ms
Heart [32]
  Time: 158.14 ms
Heart [33]
  Time: 159.76 ms
